Experimental findings from patent US4590202A, “N-(2-imidazolidinylidene)-5H-dibenzo[a,d]cyclohepten-5-amine compounds and α2 -adrenergic antagonistic uses thereof” (Merck & Co., Inc., priority 1984, dated 1986) are described below.

One assay concerns vascular smooth muscle. Kind of assay: inhibition of calcium induced contraction of vascular smooth muscle. The settings on record: 10^-7 M; contraction induced by 1.0 mM calcium chloride in depolarized rat vascular smooth muscle. The arrangement: species or system male Sprague-Dawley rats. The procedure:
The property may be observed in a test in which segments of vascular smooth muscle obtained from male Sprague-Dawley rats are suspended in physiological salt solution in a tissue bath instrumented for recording contractions. After the tissue has been equilibrated, washed in calcium-free physiological salt solution and then depolarized, 1.0 mM calcium chloride is re-added to induce contraction. After the contraction has reached a plateau, tissues are washed and a test compound or vehicle is added to determine the effect on a second contraction achieved by the above cyclic protocol. From measuring the initial contraction as well as the second contraction in the presence of the test compound, the extent of inhibition may be calculated.

The subject of the next assay is α2 -adrenoreceptor. In words: neurogenic contractions of rat vas deferens (α2-adrenergic activity). The settings on record: electrically stimulated rat vas deferens. The method, then: (§1) In such determination, vas deferens of rat is suspended under tension between two platinum electrodes of an organ bath containing Tyrode's solution and contractile responses to electrical stimulation recorded. Agonist drug is added and EC50 values determined. After wash out, an antagonist drug is added and after a suitable period of contact with the tissue, the EC50 values of agonist in presence of antagonist are similarly determined.
(§2) These properties indicate suitability for use as an antidepressant.

The subject of another assay is α1 -adrenoreceptor. In words: neurogenic contractions of rat vas deferens (α1-adrenergic activity). Particulars: electrically stimulated rat vas deferens. The procedure: as §1, §2

A word on the inhibition: it is how much of the control response was suppressed. Consider `C1=Cc2ccccc2C(N=C2NCCN2)c2ccccc21.I` [N-(2-Imidazolidinylidene)-5H-dibenzo[a,d]cyclohepten-5-amine Hydroiodide], for which the inhibition at 0.1 µM in the assay on vascular smooth muscle stood at 56%. Moreover, the “effect on neurogenic contractions of the rat vas deferens” value in the assay on α2 -adrenoreceptor (antagonism by rauwolscine) is recorded as “inhibit neurogenic contractions of the rat vas deferens which was antagonized by rauwolscine”.
Consider `Brc1ccc2c(c1)C(N=C1NCCN1)c1ccccc1C=C2.I` (stereo not drawn) [N-(2-Imidazolidinylidene)-3-bromo-5H-dibenzo[a,d]cyclohepten-5-amine Hydroiodide], for which the inhibition at 0.1 µM with vascular smooth muscle is 40%. Further, in the assay on α2 -adrenoreceptor (agonist clonidine), the “antagonism of the inhibition of contractions produced by clonidine” value is recorded as “antagonized the inhibition of contractions produced by clonidine”. In the assay on α1 -adrenoreceptor (agonist methoxamine), the “antagonism of the response to methoxamine” value was “antagonized the response to methoxamine with a similar order of potency”. Moreover, the “effect on neurogenic contractions of the rat vas deferens when given alone” value in the assay on α1 -adrenoreceptor (compound alone) is listed as “enhanced the neurogenic contractions of the rat vas deferens”.
